US20090209537A1, “AURORA INHIBITORS” (Kyowa Hakko Kirin Co., Ltd., priority 2006, published 2009)

Columns and labels:
[1] = biological target: T1, Aurora A protein (Homo sapiens, UniProt O14965); experiment: Aurora A inhibitory activity (IMAP); format: biochemical; conditions: at a concentration of 1 μmol/L; 10 μmol/L ATP
T1 construct: purchased Carna Biosciences
T1 sequence (O14965 1-403): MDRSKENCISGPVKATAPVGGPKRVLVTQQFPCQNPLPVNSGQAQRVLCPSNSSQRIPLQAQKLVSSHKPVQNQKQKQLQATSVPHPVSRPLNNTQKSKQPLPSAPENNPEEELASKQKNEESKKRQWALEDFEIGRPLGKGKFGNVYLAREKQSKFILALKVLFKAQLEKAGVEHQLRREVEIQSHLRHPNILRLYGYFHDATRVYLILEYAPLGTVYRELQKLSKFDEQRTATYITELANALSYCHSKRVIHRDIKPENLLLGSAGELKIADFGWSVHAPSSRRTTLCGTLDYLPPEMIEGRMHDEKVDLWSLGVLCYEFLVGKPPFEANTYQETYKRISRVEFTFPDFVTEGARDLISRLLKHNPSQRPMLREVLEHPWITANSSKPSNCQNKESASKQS
Procedure: The following procedure was employed to measure the Aurora A inhibitory activity.
(§1) A 20 μL sample containing Aurora A protein (Carna Biosciences) at a final concentration of 0.35 mg/mL, 20 mmol/L HEPES (pH 7.4), 0.01% Tween-20, 2 mmol/L DTT, 100 nmol/L PKAtide, 1 mmol/L magnesium acetate, 10 μmol/L adenosine-5′-triphosphate (ATP), 1% dimethylsulfoxide (DMSO), and 1 μmol/L test compound was prepared and enzyme reaction was conducted at room temperature for 60 minutes. Phosphorylation reaction was detected by using IMAP Screening Express kit (Molecular Devices Corp., R8073).
(§2) While assuming the observed value of a control to which ATP was added to be 100% and the observed value of a control to which no ATP was added to be 0%, the relative activity (%) of the radio activity of a sample containing a test compound was calculated, and the difference between 100 and the obtained percentage value was assumed to be the Aurora A inhibitory rate (%) of that test compound.

[2] = system: human pancreatic cancer cell line (MIA-PaCa-2); experiment: Cytostatic activity against human pancreatic cancer cell line (WST-1); format: cell-based; conditions: at a concentration of 10 μmol/L, 72 hours, read-out: growth inhibitory activity
Procedure: The cytostatic rate of Compound (I) against a human pancreatic cancer cell line (MIA-PaCa-2) was measured according to the following procedure.
MIA-PaCa-2 cells were cultured in a minimum essential medium (MEM) (GIBCO) containing a 10% fetal calf serum (FCS).
Each well of a TC Microwell 96F plate (Nalge Nunc) was inoculated with 50 μL of MIA-PaCa-2 cells at a density of 1000 cells/well, and the cells were incubated at 37° C. for 24 hours in a 5% carbon dioxide gas incubator. To each well, 50 μL of a solution containing a test compound prepared by stepwise dilution with the incubation medium of the respective cells was added and the resulting mixture was again incubated at 37° C. for 72 hours in a 5% carbon dioxide gas incubator. To each well, 10 μL of a WST-1 reagent (4-[3-(4-iodophenyl)-2-(4-nitrophenyl)-2H-5-tetrazolio]-1,3-benzene disulfonate sodium salt) (Roche Diagnostics K. K.) was added, followed by incubation at 37° C. for 2 hours and analysis with a microplate spectrometer, SpectraMax 340PC (Molecular Devices) to determine the absorbance at 450 nm (reference wavelength: 690 nm). The cytostatic rate was determined from the equation below by assuming the absorbance of the well containing cells similarly cultured by adding a solvent of the test compound solution to be 100%. Furthermore, the observed absorbance of a blank to which WST-1 was added immediately after addition of the solvent was used.

[3] = biological target: T2, Aurora B protein (Homo sapiens, UniProt Q96GD4); experiment: Aurora B inhibitory activity (IMAP); format: biochemical; conditions: at a concentration of 1 μmol/L; 10 μmol/L ATP
T2 construct: purchased Carna Biosciences
T2 sequence (Q96GD4 whole entry): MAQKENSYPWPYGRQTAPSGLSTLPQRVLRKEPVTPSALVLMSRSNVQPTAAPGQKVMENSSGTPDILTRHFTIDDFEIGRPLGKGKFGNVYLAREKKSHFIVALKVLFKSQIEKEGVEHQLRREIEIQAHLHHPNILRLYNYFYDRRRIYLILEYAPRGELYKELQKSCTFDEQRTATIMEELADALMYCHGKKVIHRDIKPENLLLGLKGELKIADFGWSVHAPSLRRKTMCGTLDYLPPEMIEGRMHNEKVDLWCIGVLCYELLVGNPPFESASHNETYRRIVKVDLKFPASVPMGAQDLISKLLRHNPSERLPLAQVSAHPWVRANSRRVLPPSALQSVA
T2 sequence (Q9NQS7 803-918 partner limits assumed): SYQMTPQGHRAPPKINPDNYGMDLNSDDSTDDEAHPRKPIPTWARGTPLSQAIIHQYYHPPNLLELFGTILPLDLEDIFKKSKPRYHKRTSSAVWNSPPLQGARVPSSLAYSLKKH
Procedure: The following procedure was employed to measure the Aurora B inhibitory activity.
as §1, with “Aurora B” for “Aurora A”, “of 0.3” for “of 0.35”, “nmol/L Histone H3,” for “nmol/L PKAtide,”, “μmol/L ATP,” for “μmol/L adenosine-5′-triphosphate (ATP),”, “1% DMSO,” for “1% dimethylsulfoxide (DMSO),”
as §2, with “Aurora B” for “Aurora A”

Structure (SMILES) | inhibition at 1 µM [1] [%] | inhibition at 10 µM [2] [%] | inhibition at 1 µM [3] [%]
Nc1cc(/C=C/c2n[nH]c3ccccc23)ccc1OCCN1CCOCC1 [Compound 4] | ≥ 90 | ≥ 50 | ≥ 90
CC(=O)N1CCN(C(=O)c2ccc(/C=C/c3n[nH]c4ccccc34)cc2)CC1 [Compound 6] | ≥ 90 | ≥ 50 | ≥ 90
COCC(=O)N1CCN(C(=O)c2ccc(/C=C/c3n[nH]c4ccccc34)cc2)CC1 [Compound 7] | ≥ 90 | ≥ 50 | ≥ 90
